Read-outs that look alike come from different tables or passages of the source. Blank lines part the entries; values can stand above or below the molecule they belong to.
How the values were obtained:
[1] = DDI study: pharmacokinetics of fedratinib in rats with or without antifungal drugs; assay type: in vivo, Sprague-Dawley (SD) rats; conditions: for AUC(0-inf) / AUC(0-t) / Cmax / Tmax / half-life / CL/F / MRT last / MRT inf: male, Sprague-Dawley, rat, plasma, po, 40 mg/kg, 40 mg/kg fedratinib oral gavage, n = 6, Mean ± SD; for CL/F: read-out: CLz/F (converted); for MRT last: read-out: MRT0→t; for MRT inf: read-out: MRT0→∞
From the text: The UPLC-MS/MS procedures were developed and validated to detect fedratinib concentration in plasma to support an investigational study in healthy male Sprague-Dawley (SD) rats (weighing 200 ± 20 g), which were purchased from Laboratory Animal Center of Wenzhou Medical University (Wenzhou, China). The protocols and procedures of the animal experiment were checked in accordance with the regulations defined by Wenzhou Medical University Animal Care and Use Committee (wydw 2018-0002). Before experiment, rats were housed in the environmentally controlled feeding room, and had free access to the water and food.
After 30 min, each rat was administered 40 mg/kg fedratinib by oral gavage. Then, at the time points of 0, 0.333, 0.667, 1, 2, 4, 6, 9, 12, 24, and 48 h, heparinized 1.5 ml polythene tubes were used to collect the blood samples with approximate volume of 0.3 ml. Subsequently, plasma sample (100 µL) was separated and gained after centrifugation of the whole blood samples at room temperature for 10 min with the speed of 4,000 g, and all the plasma samples were placed and held at −80 °C prior to analysis.
Drug and Statistics (DAS) 2.0 software (Shanghai University of Traditional Chinese Medicine, China) was used to analysis the main pharmacokinetic parameters of fedratinib in rats through non-compartmental approach. The comparisons of the main pharmacokinetic parameters of different groups were conducted in one-way analysis of variance equipped with the Dunnett’s test by Statistical Package for the Social Sciences (SPSS Inc., Chicago, IL, United States) version 17.0 software. In any case, if the value of p was below 0.05, it was deemed to be statistically significant.

[2] = Stability of fedratinib in rat plasma under different conditions (UPLC-MS/MS); assay type: in vitro ADME; conditions: for Stability RE (%): n = 5
Description: The stability of the analyte in rat plasma under various conditions at LQC and HQC concentration levels (n = 5) was assessed, which were subjected to at room temperature for about 2 h, in the auto-sampler for 6 h at 10 °C prior to analysis, three freeze-thaw cycles (−80 °C to room temperature), and also storage at −80 °C for 21 days. The stability results of this assay in rat plasma should be acceptable when five replicates of QC samples at LQC and HQC concentrations were evaluated and compared with the real concentrations.

[3] = healthy volunteers, 2015, cited from earlier work
[4] = set-up: method as in Ogasawara et al., 2020; conditions: a strong CYP3A4 inhibitor, ref Ogasawara et al., 2020; cited from earlier work
[5] = Group A: control (0.5% CMC-Na) 30 min before
[6] = Group B: 20 mg/kg isavuconazole 30 min before
[7] = Group C: 20 mg/kg posaconazole 30 min before
[8] = Group D: 20 mg/kg fluconazole 30 min before
[9] = Group E: 20 mg/kg itraconazole 30 min before
[10] = 20 mg/kg antifungal 30 min before 40 mg/kg fedratinib oral

Key pharmacokinetic parameters (AUC0→t, AUC0→∞, MRT0→t, MRT0→∞, t1/2, Tmax, CLz/F, Cmax) compared with control Group A ([1]; fedratinib co-administrated with posaconazole (Group C)): no significant differences | AUC(0-inf) [1, 5]: 2.15 ± 0.396 µg·h/mL | AUC(0-t) [1, 5]: 2.01 ± 0.309 µg·h/mL | Cmax [1, 5]: 0.101 ± 0.0129 µg/mL | Tmax [1, 5]: 5.43 ± 0.98 h | half-life [1, 5]: 11.1 ± 2.72 h | CL/F [1, 5]: 19.2 L/h/kg | MRT last [1, 5]: 14.4 ± 1.41 h | MRT inf [1, 5]: 15.6 ± 1.65 h | AUC(0-inf) [1, 6]: 2.72 ± 0.427 µg·h/mL | AUC(0-t) [1, 6]: 2.59 ± 0.406 µg·h/mL | Cmax [1, 6]: 0.123 ± 0.0173 µg/mL | Tmax [1, 6]: 6.4 ± 1.34 h | half-life [1, 6]: 11.1 ± 2.9 h | CL/F [1, 6]: 14.8 L/h/kg | MRT last [1, 6]: 14.9 ± 0.87 h | MRT inf [1, 6]: 15.5 ± 1.34 h | AUC(0-inf) [1, 7]: 2.51 ± 0.26 µg·h/mL | AUC(0-t) [1, 7]: 2.32 ± 0.202 µg·h/mL | Cmax [1, 7]: 0.0981 ± 0.0166 µg/mL | Tmax [1, 7]: 6 ± 1.08 h | half-life [1, 7]: 11.8 ± 2.9 h | CL/F [1, 7]: 16.6 L/h/kg | MRT last [1, 7]: 14.3 ± 1.21 h | MRT inf [1, 7]: 14.6 ± 1.32 h | AUC(0-inf) [1, 8]: 3.89 ± 0.68 µg·h/mL | AUC(0-t) [1, 8]: 3.8 ± 0.653 µg·h/mL | Cmax [1, 8]: 0.232 ± 0.0331 µg/mL | Tmax [1, 8]: 7.8 ± 1.64 h | half-life [1, 8]: 10.9 ± 2.38 h | CL/F [1, 8]: 10.6 L/h/kg | MRT last [1, 8]: 13.4 ± 1.3 h | MRT inf [1, 8]: 13.9 ± 1.36 h | AUC(0-inf) [1, 9]: 3.32 ± 0.383 µg·h/mL | AUC(0-t) [1, 9]: 3.13 ± 0.317 µg·h/mL | Cmax [1, 9]: 0.187 ± 0.0222 µg/mL | Tmax [1, 9]: 7.2 ± 1.64 h | half-life [1, 9]: 10.2 ± 3.39 h | CL/F [1, 9]: 12.2 L/h/kg | MRT last [1, 9]: 14.5 ± 1.95 h | MRT inf [1, 9]: 15.2 ± 2.1 h | Stability RE (%) ([2]; 1.5 ng/ml, Auto-sampler 10°C, 6 h): 8.3% | Stability RE (%) ([2]; 1.5 ng/ml, Room temperature, 2 h): 14.1% | Stability RE (%) ([2]; 1.5 ng/ml, Three freeze-thaw (−80 °C to room temperature)): −4.6% | Stability RE (%) ([2]; 1.5 ng/ml, −80°C, 21 days): 2.7% | Stability RE (%) ([2]; 400 ng/ml, Auto-sampler 10°C, 6 h): 11.4% | Stability RE (%) ([2]; 400 ng/ml, Room temperature, 2 h): 10.3% | Stability RE (%) ([2]; 400 ng/ml, Three freeze-thaw (−80 °C to room temperature)): 12.5% | Stability RE (%) ([2]; 400 ng/ml, −80°C, 21 days): 14.2% | Deviation from nominal concentrations (stability) ([2]; LQC and HQC, all four storage conditions): < 15%
SMILES: Cc1cnc(Nc2ccc(OCCN3CCCC3)cc2)nc1Nc1cccc(S(=O)(=O)NC(C)(C)C)c1 [Fedratinib]
Impact of pantoprazole on the pharmacokinetics of fedratinib ([3]; 40 mg pantoprazole once daily with a single dose of 500 mg fedratinib, ref Xu et al.): no significantly impact | Effect of intake of food on pharmacokinetics and bioavailability of fedratinib ([3]; ref Zhang et al.): slightly affect | Effect of ketoconazole on systemic exposure of fedratinib [4]: increases the systemic exposure of fedratinib

SMILES: C[C@@H](c1nc(-c2ccc(C#N)cc2)cs1)[C@](O)(Cn1cncn1)c1cc(F)ccc1F [isavuconazole]
Inhibitory effect on fedratinib metabolism [1, 10]: inhibitory effect on fedratinib metabolism to a certain extent | Order of inhibitory effect on fedratinib metabolism [1, 10]: fluconazole > itraconazole > isavuconazole > posaconazole

SMILES: CCC(C)n1ncn(-c2ccc(N3CCN(c4ccc(OCC5COC(Cn6cncn6)(c6ccc(Cl)cc6Cl)O5)cc4)CC3)cc2)c1=O (stereo not drawn) [itraconazole]
Order of inhibitory effect on fedratinib metabolism [1, 10]: fluconazole > itraconazole > isavuconazole > posaconazole

SMILES: CC[C@@H]([C@H](C)O)n1ncn(-c2ccc(N3CCN(c4ccc(OC[C@@H]5CO[C@@](Cn6cncn6)(c6ccc(F)cc6F)C5)cc4)CC3)cc2)c1=O [posaconazole]
Order of inhibitory effect on fedratinib metabolism [1, 10]: fluconazole > itraconazole > isavuconazole > posaconazole

From article PMC7892954, “In vivo Pharmacokinetic Drug-Drug Interaction Studies Between Fedratinib and Antifungal Agents Based on a Newly Developed and Validated UPLC/MS-MS Method” (Frontiers in Pharmacology, 2021)
